# In ChEMBL document CHEMBL2034902, “Simplified bicyclic pyridinol analogues protect mitochondrial function” (2012):
# Activity calls are given as the source filed them. The rule behind the calls is not given here.
# Columns and labels:
# [1] = system: CCRF-CEM; experiment: Cytoprotective activity against DEM-induced ROS production in human CEM cells assessed as cells with intact mitochondrial potential at 1 uM pretreated for 16 hrs prior DEM challenge measured after 120 mins by TMRM-based flow cytometry (reference value: 94%); assay type: functional
# [2] = system: CCRF-CEM; experiment: Cytoprotective activity against DEM-induced ROS production in human CEM cells assessed as cells with intact mitochondrial potential at 2.5 uM pretreated for 16 hrs prior DEM challenge measured after 120 mins by TMRM-based flow cytometry (reference value: 94%); assay type: functional
# [3] = system: CCRF-CEM; experiment: Cytoprotective activity against DEM-induced ROS production in human CEM cells assessed as prevention of loss of mitochondrial potential pretreated for 16 hrs prior DEM challenge measured after 120 mins by TMRM-based flow cytometry (reference value: 94%); assay type: functional, cell-based
# [4] = system: CCRF-CEM; experiment: Cytoprotective activity against DEM-induced ROS production in human CEM cells assessed as reduction in lipid peroxidation at 2.5 to 5 uM treated prior DEM challenge measured after 16 hrs by C11-BODIPY581/591-based flow cytometry relative to alpha-tocopherol; assay type: functional, cell-based
# [5] = system: CCRF-CEM; experiment: Cytoprotective activity against DEM-induced ROS production in human CEM cells treated prior DEM challenge after 16 hrs by DCFH-DA-based flow cytometry relative to alpha-tocopherol; assay type: functional, cell-based
# [6] = system: CCRF-CEM; experiment: Cytoprotective activity against DEM-induced ROS production in human CEM cells at 1 to 5 uM pretreated for 16 hrs prior DEM challenge measured after 5.5 hrs by trypan blue exclusion method; assay type: functional, cell-based
SMILES,Activity [1],Activity [2],Activity [3],Activity [4],Activity [5],Activity [6]
CCCCCCCCCCc1nc2c(c(C)c1O)CCN2C.O=C(O)C(F)(F)F,80%,84%,Dose-dependent effect,Active,Dose-dependent effect,Active
CCCCCCCCCCc1nc2c(c(C)c1OC(C)=O)CCN2C,75%,82%,Dose-dependent effect,Active,Dose-dependent effect,Active
CCCCCCCCCCCCCCCCc1nc2c(c(C)c1OC(C)=O)CCN2C,50%,65%,Dose-dependent effect,Active,Active,Active
CCCCCCCCCCCCCCCCc1nc2c(c(C)c1O)CCN2C.O=C(O)C(F)(F)F,46%,70%,Dose-dependent effect,Active,Active,inactive
CCCCCc1nc2c(c(C)c1O)CCN2C.O=C(O)C(F)(F)F,40%,63%,Dose-dependent effect,inactive,inactive,Active
Cc1c(C)c2c(c(C)c1O)CC[C@@](C)(CCC[C@H](C)CCC[C@H](C)CCCC(C)C)O2,,,,Active,Active,Active
CCCCCc1nc2c(c(C)c1OC(C)=O)CCN2C,30%,60%,Dose-dependent effect,inactive,inactive,Active
